In patent US12257237B2 (priority 2017, dated 2025):
Where “and” joins values, the source holds several entries; their conditions need not be identical. Equal values may be shown once.

Tested on: DD013 dedifferentiated liposarcoma
Experiment: Antitumour activity in DD013 dedifferentiated liposarcoma xenograft model
Format: in vivo, Athymic nude mice
Protocol: Experiments were performed with female Athymic nude mice, 9-10 weeks old obtained from Harlan Laboratories (Udine, Italy). They were maintained under Specific Pathogen Free conditions with constant temperature and humidity, according to the institutional guidelines.
Tumour growth mice was monitored two/three times a week (depending on tumour growth rate, to avoid unnecessary stress to the animals) by Vernier caliper. Mice were sacrificed when tumour reached a mean weight of 2±0.5 gr. The antitumour activity will be expressed as T/C %, where T and C were the mean tumour weight of treated and control groups, respectively. Mice were monitored daily and weighted at least two times a week. Tolerability was evaluated on the basis of body weight loss (BWL) and clinical observation.
Statistical analysis was performed with GraphPad Prism version 6.01 software (GraphPad software, Inc., La Jolla, CA, USA). ANOVA test was performed to evaluate if there were statistically significant differences between treated and control groups.
Briefly, xenografts were obtained by transplanting 3-4 mm tumour fragments s.c. in the flanks of mice. The growing tumour masses were measured with the aid of a Vernier caliper, and the tumour weights (TW, 1 mm^3=1 mg) were calculated by the formula: length×(width) 2/2. When tumour load achieved about 200-400 mg, mice were randomized into the experimental groups.

Cn1c(CCCCCCC(=O)NO)nc2cc(N(CCCl)CCCl)ccc21 [EDO-S101, 7-(5-(bis(2-chloroethyl)amino)-1-methyl-1H-benzo[d]imidazol-2-yl)-N-hydroxyheptanamide]
DD0113 tumour weight, Mean (EDO60: EDO-S101 60 mg/kg q7dx3, day 87 from inoculum): 393.6 mg
DD0113 tumour weight, Mean (EDO60: EDO-S101 60 mg/kg q7dx3, day 90 from inoculum): 436.6 mg
DD0113 tumour weight, individual mouse (EDO60: EDO-S101 60 mg/kg q7dx3, day 90 from inoculum, 60 mg/kg): 118.4 mg and 56.3 mg and 626.5 mg and 82.7 mg and 234.7 mg and 492.6 mg and 49.6 mg
DD0113 tumour weight, Mean (EDO60: EDO-S101 60 mg/kg q7dx3, day 94 from inoculum): 476.6 mg
DD0113 tumour weight, individual mouse (EDO60: EDO-S101 60 mg/kg q7dx3, day 94 from inoculum, 60 mg/kg): 135.6 mg and 73.5 mg and 693.0 mg and 95.1 mg and 279.8 mg and 598.8 mg and 43.4 mg
DD0113 tumour weight, Mean (EDO60: EDO-S101 60 mg/kg q7dx3, day 98 from inoculum): 451.5 mg
DD0113 tumour weight, individual mouse (EDO60: EDO-S101 60 mg/kg q7dx3, day 98 from inoculum, 60 mg/kg): 113.6 mg and 57.9 mg and 655.0 mg and 70.1 mg and 225.1 mg and 584.9 mg and 30.7 mg
DD0113 tumour weight, Mean (EDO60: EDO-S101 60 mg/kg q7dx3, day 100 from inoculum): 518.4 mg
DD0113 tumour weight, individual mouse (EDO60: EDO-S101 60 mg/kg q7dx3, day 100 from inoculum, 60 mg/kg): 122.1 mg and 86.5 mg and 751.1 mg and 87.0 mg and 297.7 mg and 718.0 mg and 40.7 mg
DD0113 tumour weight, Mean (EDO60: EDO-S101 60 mg/kg q7dx3, day 103 from inoculum): 503.0 mg
DD0113 tumour weight, individual mouse (EDO60: EDO-S101 60 mg/kg q7dx3, day 103 from inoculum, 60 mg/kg): 70.5 mg and 747.9 mg and 89.6 mg and 231.0 mg and 670.9 mg and 37.5 mg
DD0113 tumour weight, Mean (EDO60: EDO-S101 60 mg/kg q7dx3, day 111 from inoculum): 502.0 mg
DD0113 tumour weight, individual mouse (EDO60: EDO-S101 60 mg/kg q7dx3, day 111 from inoculum, 60 mg/kg): 90.0 mg and 45.6 mg and 813.1 mg and 62.2 mg and 245.9 mg and 686.9 mg and 33.9 mg
DD0113 tumour weight, Mean (EDO60: EDO-S101 60 mg/kg q7dx3, day 114 from inoculum): 624.6 mg
DD0113 tumour weight, individual mouse (EDO60: EDO-S101 60 mg/kg q7dx3, day 114 from inoculum, 60 mg/kg): 131.7 mg and 81.4 mg and 999.4 mg and 119.1 mg and 284.3 mg and 935.9 mg and 61.0 mg
DD0113 tumour weight, Mean (EDO60: EDO-S101 60 mg/kg q7dx3, day 118 from inoculum): 747.2 mg
DD0113 tumour weight, individual mouse (EDO60: EDO-S101 60 mg/kg q7dx3, day 118 from inoculum, 60 mg/kg): 157.8 mg and 79.8 mg and 1342.5 mg and 134.3 mg and 364.6 mg and 1024.5 mg and 64.1 mg
DD0113 tumour weight, Mean (EDO80: EDO-S101 80 mg/kg single dose, day 23 from inoculum): 198.0 mg
DD0113 tumour weight, individual mouse (EDO80: EDO-S101 80 mg/kg single dose, day 23 from inoculum, 80 mg/kg): 361.8 mg and 272.9 mg and 241.0 mg and 225.2 mg and 191.6 mg
DD0113 tumour weight, Mean (EDO80: EDO-S101 80 mg/kg single dose, day 26 from inoculum): 253.1 mg
DD0113 tumour weight, individual mouse (EDO80: EDO-S101 80 mg/kg single dose, day 26 from inoculum, 80 mg/kg): 410.2 mg and 433.7 mg and 275.2 mg and 338.5 mg and 196.8 mg
DD0113 tumour weight, Mean (EDO80: EDO-S101 80 mg/kg single dose, day 29 from inoculum): 251.2 mg
DD0113 tumour weight, individual mouse (EDO80: EDO-S101 80 mg/kg single dose, day 29 from inoculum, 80 mg/kg): 399.5 mg and 447.9 mg and 310.3 mg and 335.3 mg and 179.1 mg
DD0113 tumour weight, Mean (EDO80: EDO-S101 80 mg/kg single dose, day 33 from inoculum): 251.0 mg
DD0113 tumour weight, individual mouse (EDO80: EDO-S101 80 mg/kg single dose, day 33 from inoculum, 80 mg/kg): 456.2 mg and 408.9 mg and 293.6 mg and 271.4 mg and 220.9 mg
DD0113 tumour weight, Mean (EDO80: EDO-S101 80 mg/kg single dose, day 36 from inoculum): 256.4 mg
DD0113 tumour weight, individual mouse (EDO80: EDO-S101 80 mg/kg single dose, day 36 from inoculum, 80 mg/kg): 466.8 mg and 431.6 mg and 284.2 mg and 280.3 mg and 194.9 mg
DD0113 tumour weight, Mean (EDO80: EDO-S101 80 mg/kg single dose, day 40 from inoculum): 283.7 mg
DD0113 tumour weight, individual mouse (EDO80: EDO-S101 80 mg/kg single dose, day 40 from inoculum, 80 mg/kg): 569.1 mg and 476.7 mg and 364.0 mg and 279.7 mg and 216.2 mg
DD0113 tumour weight, Mean (EDO80: EDO-S101 80 mg/kg single dose, day 43 from inoculum): 284.8 mg
DD0113 tumour weight, individual mouse (EDO80: EDO-S101 80 mg/kg single dose, day 43 from inoculum, 80 mg/kg): 500.6 mg and 547.3 mg and 355.5 mg and 255.8 mg and 227.9 mg
DD0113 tumour weight, Mean (EDO80: EDO-S101 80 mg/kg single dose, day 47 from inoculum): 326.3 mg
DD0113 tumour weight, individual mouse (EDO80: EDO-S101 80 mg/kg single dose, day 47 from inoculum, 80 mg/kg): 626.2 mg and 643.5 mg and 338.2 mg and 321.9 mg and 275.0 mg
DD0113 tumour weight, Mean (EDO80: EDO-S101 80 mg/kg single dose, day 50 from inoculum): 384.4 mg
DD0113 tumour weight, individual mouse (EDO80: EDO-S101 80 mg/kg single dose, day 50 from inoculum, 80 mg/kg): 686.0 mg and 716.7 mg and 447.7 mg and 447.8 mg and 297.1 mg
DD0113 tumour weight, Mean (EDO80: EDO-S101 80 mg/kg single dose, day 54 from inoculum): 418.9 mg
DD0113 tumour weight, Mean (EDO80: EDO-S101 80 mg/kg single dose, day 58 from inoculum): 511.4 mg
DD0113 tumour weight, Mean (EDO80: EDO-S101 80 mg/kg single dose, day 62 from inoculum): 549.2 mg
DD0113 tumour weight, Mean (EDO80: EDO-S101 80 mg/kg single dose, day 65 from inoculum): 540.3 mg
DD0113 tumour weight, Mean (EDO80: EDO-S101 80 mg/kg single dose, day 69 from inoculum): 531.6 mg
DD0113 tumour weight, Mean (EDO80: EDO-S101 80 mg/kg single dose, day 72 from inoculum): 581.5 mg
DD0113 tumour weight, Mean (EDO80: EDO-S101 80 mg/kg single dose, day 75 from inoculum): 560.9 mg
DD0113 tumour weight, Mean (EDO80: EDO-S101 80 mg/kg single dose, day 79 from inoculum): 564.1 mg
DD0113 tumour weight, Mean (EDO80: EDO-S101 80 mg/kg single dose, day 83 from inoculum): 475.0 mg
DD0113 tumour weight, Mean (EDO80: EDO-S101 80 mg/kg single dose, day 87 from inoculum): 594.1 mg
DD0113 tumour weight, Mean (EDO80: EDO-S101 80 mg/kg single dose, day 90 from inoculum): 638.8 mg
DD0113 tumour weight, Mean (EDO80: EDO-S101 80 mg/kg single dose, day 94 from inoculum): 826.0 mg
DD0113 tumour weight, Mean (EDO80: EDO-S101 80 mg/kg single dose, day 98 from inoculum): 927.2 mg
DD0113 tumour weight, Mean (EDO80: EDO-S101 80 mg/kg single dose, day 100 from inoculum): 1209.8 mg
DD0113 tumour weight, Mean (EDO80: EDO-S101 80 mg/kg single dose, day 103 from inoculum): 1301.2 mg
